Measured values published in the NIST ThermoML archive (doi:10.1021/je050151n).
“And” between values parts separate entries of the source, which are not always exact repeats. Identical values can stand only once.

Assays:
[1] = refractive index (Na D-line) (dimensionless); conditions: 293.15 K; 101.33 kPa; Liquid; Standard Abbe refractometry
[2] = 101.33 kPa, Liquid; for mass density: Vibrating tube method; for viscosity: Vibrating wire viscometry

CC(C)CCCCCCCOC(=O)c1ccccc1C(=O)OCCCCCCCC(C)C
Conditions | refractive index
[1] | 1.4845

[2]
Conditions | mass density [kg/m3] | viscosity
283.16 K | 973.52 | 267.36 mPa·s
288.26 K | 969.85 | 176.04 mPa·s
293.21 K | 966.38 | 123.07 mPa·s and 122.75 mPa·s
298.24 K | 962.82 | 87.8 mPa·s
303.21 K | 959.3 | 64.84 mPa·s
308.2 K | 955.78 | 48.73 mPa·s
313.21 K | 952.22 | 37.57 mPa·s
